In patent US8507440B2, “Protein kinase C peptides for use in withdrawal” (The Board of Trustees of the Leland Stanford Junior …, priority 2002, dated 2013):
Read-outs that look alike come from different tables or passages of the source.

Legend:
in vivo = details: rat, 4 g/kg
[1] = system: N-methyl-D-aspartate (NMDA) receptor currents; test: alcohol withdrawal hyperresponsiveness of NMDA-evoked currents in lumbar spinal cord slice motor neurons; assay type: cell-based, rat; details: 100 mM EtOH, n=11 motor neurons
Text: Spinal cords were taken from young rats, and slices of these cords were made and placed in artificial cerebrospinal fluid for patch clamp electrophysiological analysis, to characterize the ability of γPKC peptides to mediate alcohol withdrawal hyperresponsiveness of N-methyl-D-aspartate (NMDA) receptor currents. FIG. 7A is a schematic diagram of the technique, where a lumbar spinal cord slice 10 is shown. The placement of a recording electrode 12 and a pipette 14 for application of NMDA relative to a motor neuron 16 is illustrated.
Sprague-Dawley rats at postnatal day 7-10 were anesthetized with halothane, decapitated, and the spinal cords were quickly removed. Slices […] thick were sectioned from the lumbar region. Whole cell voltage clamp recordings were made from visually-identified motor neurons using infrared video microscopy, a 60× water immersion lens, and a MultiClamp 700A patch clamp amplifier. Cells were held at a holding potential of −60 mV in artificial cerebrospinal fluid (ACSF) containing bicuculline methiodide ([…]), strychnine ([…]), and tetrodotoxin ([…]). Postsynaptic currents were evoked by direct pressure application of 2 mM N-methyl-D-aspartate (NMDA) from a pipette positioned near the recorded cell at 1-2 min intervals, as illustrated in FIG. 7A. The area of evoked currents during and following 100 mM ethanol (EtOH) application was measured and normalized to the average baseline current area during the 10 minutes preceding EtOH application. Data are expressed as mean +/−SEM: Statistical significance was determined by one-way ANOVA followed by Dunn's or Tukey's multiple comparison test with significance set at p<0.05.

[2] = system: 7 day old and 21 day old rats; test: ethanol withdrawal mechanical allodynia testing (von Frey threshold withdrawal force); assay type: in vivo, rat
[3] = system: 7 day old and 21 day old rats; test: ethanol withdrawal thermal hyperalgesia testing (paw withdrawal latency); assay type: in vivo, rat; details: 4 g/kg 15% EtOH
γPKC [4] = system: γPKC
Experimental: (§1) To determine if EtOH alters the expression and cellular localization of εPKC and γPKC, immunohistochemistry was performed on L4/5 dorsal root ganglion (DRG) and L4/5 lumbar spinal cord sections, as described in Example 4. Rat at postnatal days 7 and 21, treated with saline or 4 g/kg 15% EtOH, were euthanized at 2, 4, or 6 hours post injection for isolation of the lumbar spinal cords.
(§2) Animals administered a single dose of 4 g/kg 15% EtOH or saline (i.p.) were deeply anesthetized with halothane and euthanized at 2, 4, or 6 hours post injection by transcardiac perfusion (phosphate-buffered saline wash, followed by 4% formaldehyde in PBS, pH 7.4). Following perfusion, lumbar spinal cord and L4/L5 dorsal root ganglia (DRG) were isolated and post-fixed for 3 hours in 4% formaldehyde solution followed by cryoprotection in 30% sucrose/PBS at 4° C. Sections were freeze-mounted in OCT-embedding medium on cork blocks and stored at −80° C. until analysis. For spinal cord sections, free-floating immunohistochemistry was performed on 30 μm L4-L5 spinal sections. Dorsal root ganglia were cut on a cryostat at 10 μm and slide mounted. Slides were heated overnight at 32° C. Immunohistochemistry was performed utilizing an avidin-biotin complex (ABC) technique as previously described (Sweitzer et al., Brain Res., 829(1-2):209-221 (1999)). Rabbit polyclonal antibodies to γPKC (1:500 from Santa Cruz) or εPKC (1:1,000 from Santa Cruz) were used. Immunohistochemistry was scored blinded to experimental conditions.
(§3) For both spinal cord tissues and DRG, densitometry using ImageJ software was performed on at least three sections from each of three individual animals.

εPKC = system: εPKC
Experimental: as §1, §2, §3

γPKC [5] = target: T1, γPKC (Rattus norvegicus, UniProt P63319); assay type: cell-based; details: after application of ethanol 100 mM; control about 14
T1 construct: from tissue; host or cells: lumbar spinal cord slices of postnatal day 7-10 Sprague-Dawley rats
Experimental: Fluorescence immunocytochemical studies were performed on the spinal cord sections, as described in Example 3. The sections were incubated with an anti-γPKC antibody and an anti-neuronal antibody to identify neurons. […] Translocation of γPKC was quantified by counting the number of cells with γPKC localized to the nucleus before (control) and after application of ethanol, as well as after washing with artificial cerebrospinal fluid. […] Two to three sections per animal were counted.
Fluorescence immunocytochemical studies were performed on spinal cord sections […] from control slices (perfused with ACSF for 70 minutes) and EtOH treated slices (perfused with ACSF for 30 minutes followed by 20 min 100 mM EtOH and 20 min wash with ACSF). The sections were incubated with a rabbit anti-PKCg polyclonal antibody (1:500) overnight at 4° C. In some cord sections, a mouse anti-neuronal nuclei monoclonal antibody (NeuN, 1:750) was added to identify neurons. After several washes with ACSF, the sections were labeled for 2 hours at room temperature with fluorescein-labeled secondary antibodies (1:500). Double immunofluorescence was assessed with a laser confocal microscope.

[6] = for maximal blood EtOH concentration: 30 minutes post 4 g/kg 15% EtOH; for maximal EtOH concentration in spinal cord: 4 g/kg 15% EtOH
[7] = 21 day old rats, 4 g/kg and 0.5 g/kg 15% EtOH

SMILES: CCO [EtOH, ethanol]
- half-life (in vivo; spinal cord, ip, T ½ Early, 7 day old rat, 4 g/kg 15% EtOH i.p.): 96 min
- half-life (in vivo; spinal cord, ip, T ½ Early, 21 day old rat, 4 g/kg 15% EtOH i.p.): 90 min
- half-life (in vivo; spinal cord, ip, T ½ Late, 7 day old rat, 4 g/kg 15% EtOH i.p.): 690 min
- half-life (in vivo; spinal cord, ip, T ½ Late, 21 day old rat, 4 g/kg 15% EtOH i.p.): 702 min
- half-life (in vivo; whole blood, intraperitoneal, extension of blood late phase half-life of 21 day old beyond 7 day old rats, blood): 240 min
- half-life (in vivo; whole blood, ip, T ½ Early, Blood, 7 day old rat, 4 g/kg 15% EtOH i.p.): 114 min
- half-life (in vivo; whole blood, ip, T ½ Early, Blood, 21 day old rat, 4 g/kg 15% EtOH i.p.): 102 min
- half-life (in vivo; whole blood, ip, T ½ Late, Blood, 7 day old rat, 4 g/kg 15% EtOH i.p.): 1090 min
- half-life (in vivo; whole blood, ip, T ½ Late, Blood, 21 day old rat, 4 g/kg 15% EtOH i.p.): 1350 min
- normalized NMDA current (INMDA) area after application of alcohol [1]: increases
- threshold withdrawal force after ethanol ([2]; 7 day old rats, 1 g/kg 15% EtOH): did not significantly alter the threshold withdrawal force
- paw threshold withdrawal force after ethanol ([2]; 7 day old rats, 4 g/kg 15% EtOH, 6 hours and 8 hours post injection): exhibited mechanical allodynia
- threshold withdrawal force after ethanol ([2]; 7 day old rats, 4 g/kg 15% EtOH, two hour test interval): slight but insignificant increase in threshold withdrawal force
- mechanical thresholds after ethanol [2, 7]: maximally decreased mechanical thresholds at 6 hours post EtOH injection
- time withdrawal thresholds remained below baseline [2, 7]: up to 72 hours
- thermal paw withdrawal latency after ethanol ([3]; 7 day old rats, 6 hours): Thermal hyperalgesia as evidenced by a decrease in paw withdrawal latency, was observed
- thermal paw withdrawal latency after ethanol ([3]; 21 day old rats, entire time period): did not exhibit a decrease in paw withdrawal latency
- γPKC cellular localization (γPKC [4]; 2 hours post-EtOH injection): had translocated to the plasma membrane
- number of somata staining positive for γPKC above saline control levels (γPKC [4]; 7 day old rats, lamina II, 6 hours post injection of 4 g/kg 15% EtOH): 4 fold
- γPKC staining intensity (γPKC [4]; 21 day old rats, 2 to 6 hours post-EtOH injection): γPKC staining intensity increased
- cells staining positive for εPKC (εPKC; 7 day old rats, 2 hour exposure to 4 g/kg 15% EtOH): the percentage of cells staining positive for εPKC increased
- cells staining positive for εPKC and staining intensity (εPKC; 21 day old rats, 4 g/kg 15% EtOH): did not result in an increase in the number of positive staining cells or in the staining intensity within positively stained cells
- number of cells having γPKC localized in the nucleus (γPKC [5]): about 6
- time of peak spinal cord EtOH level ([6]; 7 day old and 21 day old rats, post injection): 30 min
- maximal blood EtOH concentration ([6]; 7 day old pups): 5.91 ± 0.46 µg/mL
- maximal EtOH concentration in spinal cord ([6]; 7 day old rats): 14.8 μg/mg tissue
- maximal EtOH concentration in spinal cord ([6]; 21 day old rats): 11.4 μg/mg tissue
- maximal blood EtOH concentration ([6]; 21 day old rats): 5.67 ± 0.60 µg/mL
- time of peak blood EtOH concentration ([6]; both 7 day old and 21 day old rats, post-ethanol injection): 30 min
- spinal cord later-phase half-life relative to half life for blood EtOH levels ([6]; rat, in vivo): 50%
